Measurements taken from ChEMBL document CHEMBL1201862, “PubChem BioAssay data set” (2004).
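Where inhibition never reached the appropriate level, the endpoint shown equals the highest concentration tested. Otherwise, values were interpolated linearly from a five-concentration, 48-hour dose response in 96-well plates. GI50 marks 50% less growth.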 The source made the active and inactive calls. Cut-off read from the data, not from the text of the source: active = GI50 up to about 1.1 µM and inactive = higher.

Columns and labels:
Assay in all cases: growth of human tumour cells (NCI), 48 h
A549 = system: A549
HCC 2998 = system: HCC 2998
HCT-15 = system: HCT-15
HOP-62 = system: HOP-62
KM12 = system: KM12
LOX IMVI = system: LOX IMVI
M14 = system: M14
NCI-H23 = system: NCI-H23
NCI-H522 = system: NCI-H522
OVCAR-3 = system: OVCAR-3
RPMI-8226 = system: RPMI-8226
SF-268 = system: SF-268
SK-MEL-5 = system: SK-MEL-5
SNB-19 = system: SNB-19
SNB-75 = system: SNB-75
UACC-62 = system: UACC-62
DLD-1 = system: DLD-1
KM-20L2 = system: KM-20L2
Malme-3M = system: Malme-3M
SK-MEL-2 = system: SK-MEL-2

Row | Compound | GI50 (A549) | GI50 (HCC 2998) | GI50 (HCT-15) | GI50 (HOP-62) | GI50 (KM12) | GI50 (LOX IMVI) | GI50 (M14) | GI50 (NCI-H23) | GI50 (NCI-H522) | GI50 (OVCAR-3) | GI50 (RPMI-8226) | GI50 (SF-268) | GI50 (SK-MEL-5) | GI50 (SNB-19) | GI50 (SNB-75) | GI50 (UACC-62) | GI50 (DLD-1) | GI50 (KM-20L2) | GI50 (Malme-3M) | GI50 (SK-MEL-2)
1 | COC1/C=C/C=C(/C)Cc2cc(O)c(Cl)c(c2)N(C)C(=O)CC(OC(=O)C(C)C)C2(C)OC2C(C)C2CC1(O)NC(=O)O2 (stereo unspecified) | < 0.01 µM (active) | < 0.01 µM (active) | < 0.01 µM | 0.0673 µM (active) | < 0.01 µM (active) | < 0.01 µM (active) | < 0.01 µM (active) | < 0.01 µM (active) | < 0.01 µM (active) | < 0.01 µM (active) | < 0.01 µM (active) | < 0.01 µM (active) | < 0.01 µM (active) | < 0.01 µM (active) | < 0.01 µM (active) | < 0.01 µM (active) |  |  |  | 
2 | c1ccc2cc3c(cc2c1)OP1(Oc2cccc4cccnc24)(O3)Oc2cc3ccccc3cc2O1 | 5.9 µM (inactive) | 8.59 µM (inactive) | 3.05 µM | 21 µM (inactive) | 5.31 µM (inactive) | 3.72 µM (inactive) |  | 2.71 µM (inactive) | 2.39 µM (inactive) | 1.58 µM (inactive) | 1.07 µM (active) | 4.81 µM (inactive) | 3.17 µM (inactive) | 24.3 µM (inactive) | 18.6 µM (inactive) | 3.05 µM (inactive) | 4.2 µM (inactive) | 3.39 µM (inactive) | 7.21 µM (inactive) | 7.66 µM (inactive)
3 | CCOC(=O)C[n+]1ccc2c([nH]c3cc(OC)ccc32)c1C | > 100 µM (inactive) | > 100 µM (inactive) | > 100 µM | > 78.3 µM (inactive) | > 100 µM (inactive) | 71.8 µM (inactive) |  | > 100 µM (inactive) | 68.2 µM (inactive) | > 79.1 µM (inactive) | > 100 µM (inactive) | > 100 µM (inactive) | > 77.8 µM (inactive) | > 100 µM (inactive) | > 100 µM (inactive) | > 100 µM (inactive) | > 100 µM (inactive) | > 65.2 µM (inactive) | > 100 µM (inactive) | > 100 µM (inactive)
4 | Cc1ccc(C(=O)N/N=C(\N=N\c2ccc([N+](=O)[O-])cc2)c2ccc(N(CCC#N)CCC#N)cc2C)cc1 | 70.1 µM (inactive) | 54.1 µM (inactive) | > 100 µM | 71.4 µM (inactive) | 39.5 µM (inactive) | 60.8 µM (inactive) | 58.3 µM (inactive) | > 100 µM (inactive) |  | 39.6 µM (inactive) | > 100 µM (inactive) | > 100 µM (inactive) | 75.3 µM (inactive) | > 100 µM (inactive) | 43.7 µM (inactive) |  |  |  | > 100 µM (inactive) | 49.5 µM (inactive)
5 | Cc1ccc(OP2(=O)Oc3ccc4ccccc4c3CN2c2ccc(Cl)cc2)cc1C (stereo unspecified) | > 100 µM (inactive) | > 100 µM (inactive) | > 100 µM | > 100 µM (inactive) | > 100 µM (inactive) | > 100 µM (inactive) |  | > 100 µM (inactive) | > 100 µM (inactive) | > 100 µM (inactive) | > 100 µM (inactive) | > 100 µM (inactive) | > 100 µM (inactive) | > 100 µM (inactive) | > 100 µM (inactive) | > 100 µM (inactive) | > 100 µM (inactive) | > 100 µM (inactive) | > 100 µM (inactive) | > 100 µM (inactive)
6 | O=[N+]([O-])c1cnccc1-n1nnc2ccccc21 | 25.1 µM (inactive) | 19.7 µM (inactive) | 18 µM | 25.1 µM (inactive) | 17.2 µM (inactive) | 12.6 µM (inactive) |  | 18.2 µM (inactive) | 16 µM (inactive) | 17.8 µM (inactive) | 32.9 µM (inactive) | 18.8 µM (inactive) | 13.9 µM (inactive) | 30.6 µM (inactive) | 15.2 µM (inactive) | 13.8 µM (inactive) | 20.2 µM (inactive) | 29.2 µM (inactive) | 17.3 µM (inactive) | 16.5 µM (inactive)
7 | O=C1OCc2cccc3c2-c2c1cccc2C(=O)OC3 |  | > 100 µM (inactive) | > 100 µM | > 100 µM (inactive) | > 100 µM (inactive) |  | > 100 µM (inactive) | > 100 µM (inactive) |  | > 100 µM (inactive) | > 100 µM (inactive) | > 100 µM (inactive) | > 100 µM (inactive) | > 100 µM (inactive) |  | > 100 µM (inactive) | > 100 µM (inactive) | > 100 µM (inactive) | > 100 µM (inactive) | > 100 µM (inactive)
8 | BrC1=CN2C[n+]3cc(Br)c4ccccc4c3N=C2c2ccccc21 | 46.3 µM (inactive) |  | 58.6 µM | 1.4 µM (inactive) | 3.65 µM (inactive) | 12.4 µM (inactive) | 5.92 µM (inactive) | 21.1 µM (inactive) | 12.3 µM (inactive) | 2.88 µM (inactive) | 10.8 µM (inactive) | 8.55 µM (inactive) | 3.34 µM (inactive) | 6.67 µM (inactive) | 2.92 µM (inactive) | 5.58 µM (inactive) |  |  | 2.75 µM (inactive) | 7.57 µM (inactive)
9 | S=C(NCCCCCCNC(=S)Nc1c2ccccc2nc2ccccc12)Nc1c2ccccc2nc2ccccc12 | 87.5 µM (inactive) | > 96.2 µM (inactive) | 76.4 µM | > 89.3 µM (inactive) | 10.9 µM (inactive) | 72.4 µM (inactive) |  | > 100 µM (inactive) | 64.6 µM (inactive) | > 90.2 µM (inactive) | 95.5 µM (inactive) | > 100 µM (inactive) | > 93.1 µM (inactive) | > 83 µM (inactive) | 32.9 µM (inactive) | > 100 µM (inactive) | 70.1 µM (inactive) | 79.4 µM (inactive) | > 100 µM (inactive) | > 100 µM (inactive)
10 | O=C(O)C1CCC(=O)N1S(=O)(=O)c1ccccc1 (stereo unspecified) | > 100 µM (inactive) | > 100 µM (inactive) | > 100 µM | > 100 µM (inactive) | > 100 µM (inactive) | > 100 µM (inactive) |  | > 100 µM (inactive) | > 100 µM (inactive) | > 100 µM (inactive) | > 100 µM (inactive) | > 96.2 µM (inactive) | > 100 µM (inactive) | > 100 µM (inactive) | > 100 µM (inactive) | > 100 µM (inactive) | > 100 µM (inactive) | > 100 µM (inactive) | > 100 µM (inactive) | > 100 µM (inactive)
11 | CO/N=C(\C)c1ccc(Nc2nc3ccccc3c3occc23)cc1 | 17.3 µM (inactive) | 16.1 µM (inactive) | 15.1 µM | 16 µM (inactive) | 17.6 µM (inactive) | 15.3 µM (inactive) | 16.3 µM (inactive) | 14.7 µM (inactive) | 10.8 µM (inactive) | 30.2 µM (inactive) | 16.9 µM (inactive) | 16.4 µM (inactive) | 15.8 µM (inactive) | 15.5 µM (inactive) |  | 12.1 µM (inactive) |  |  | 14.6 µM (inactive) | 18 µM (inactive)
12 | CSCSCC(N)CO.Cc1[nH]c(=O)[nH]c(=O)c1/C=C/C(=O)O | > 625 µM (inactive) | > 625 µM (inactive) | > 625 µM | > 625 µM (inactive) | > 625 µM (inactive) | > 625 µM (inactive) |  | > 625 µM (inactive) | > 625 µM (inactive) | > 625 µM (inactive) | > 625 µM (inactive) | > 625 µM (inactive) | > 625 µM (inactive) | > 625 µM (inactive) | 447 µM (inactive) | > 625 µM (inactive) | > 625 µM (inactive) | > 625 µM (inactive) | > 625 µM (inactive) | > 625 µM (inactive)
13 | COc1ccccc1-c1cc(O)c2c(C)ccnc2n1 | 43.7 µM (inactive) | 64.9 µM (inactive) | 28.4 µM | 30.1 µM (inactive) | 27.7 µM (inactive) | 37.9 µM (inactive) | 42.4 µM (inactive) | 29.9 µM (inactive) | 15.8 µM (inactive) |  | 59.8 µM (inactive) | 45.5 µM (inactive) |  | 26.3 µM (inactive) | 12.9 µM (inactive) | 42.9 µM (inactive) |  |  | 39 µM (inactive) | 26.7 µM (inactive)
